According to article PMC9604311 (International Journal of Molecular Sciences, 2022):
“Also recorded” adds a separate entry of the source. Positions of bridges follow the written chain, without caps; N, C: chain ends. Non-standard residues stand in square brackets, D forms with d. Residues, ends and D or L forms follow the SMILES beside them. No end group written: not given here.

How the values were obtained:
human KOP = molecular target: T1, human KOP (Homo sapiens, UniProt P41145); experiment: cell-based; conditions: for KOP pEC50 (CL95%): agonist potency, calcium mobilization; for KOP pEC50 (CL95%) / KOP α ± SEM: inactive = inactive up to 1 μM; for KOP α ± SEM: efficacy (intrinsic activity) relative to dynorphin A
T1 construct: expressed in transfected cells; host or cells: CHO cells

human MOP [1] = molecular target: T2, human MOP (Homo sapiens, UniProt P35372); conditions: agonist potency, calcium mobilization; inactive = inactive up to 1 μM
human DOP [2] = molecular target: T3, human DOP (Homo sapiens, UniProt P41143); assay type: cell-based; design: expressed in transfected cells; host or cells: CHO cells; conditions: inactive = inactive up to 1 μM; for DOP pEC50 (CL95%): agonist potency, calcium mobilization; for DOP α ± SEM: efficacy (intrinsic activity) relative to DPDPE
human NOP = human NOP (Homo sapiens, UniProt P41146); experiment: calcium mobilization assay, CHO cells co-expressing NOP and Gαqi5; conditions: for NOP pEC50 (CL95%): agonist potency, calcium mobilization, inactive = inactive up to 1 μM
[3] = molecular target: T4, human nociceptin/orphanin FQ peptide receptor (NOP) (Homo sapiens, UniProt P41146); experiment: [leucyl-3H]nociceptin displacement binding assay
T4 construct: expressed in transfected cells; host or cells: CHO cells (CHOhNOP; gift from GSK), membrane homogenate
Procedure: Radioactivity was determined after an 8 h extraction period.
(§1) The IC50 values were determined from the logarithmic concentration–displacement curves, and the values of the inhibitory constants (Ki) were calculated according to the equation of Cheng and Prusoff.

mice [4] = experiment: rotarod test (motor coordination); assay type: in vivo; conditions: 6.2 nmol/animal, i.t.; compared to control group
Procedure: Rotarod apparatus (Ugo Basile, No. 8466, Italy) was used to estimate the probable influence of peptide on motor coordination of animals. In the training period, 3 trials were conducted for 3 consecutive days. Animals that were able to stay on the rotating (16 revolutions/min) bar more than 180 s were chosen for the tests. In the experimental session, each animal was tested on the rotarod, and duration to fall from the rotating bar was noted.

human MOP [5] = molecular target: T2, human MOP; experiment: cell-based
mice [6] = experiment: mouse hot-plate test (antinociception); conditions: i.t. administration, value with range in parentheses
human MOP [7] = molecular target: T2, human MOP; experiment: [3H]DAMGO displacement binding assay; design: purchased PerkinElmer; host or cells: CHO cells
Procedure: (§2) Membranes were incubated in 0.5 mL of 50 mM Tris/HCl (pH = 7.4), 0.5% bovine serum albumin (BSA), with a number of peptidase inhibitors (bacitracin, bestatin, captopril) and various concentrations of radioligands for 2 h at 25 °C. Non-specific binding was assessed in the presence of […] naloxone. Assays were incubated at room temperature for […] and reactions were terminated via filtration through Whatman GF/B filters, soaked in 0.5% polyethyleneimine (PEI), using Millipore Sampling Manifold (Billerica, MA, USA). Radioactivity was determined after an 8 h extraction period.
as §1

human DOP [8] = molecular target: T3, human DOP; experiment: [3H]deltorphin-2 displacement binding assay; design: purchased PerkinElmer; host or cells: CHO cells; conditions: for pKi DOP: displacement of [3H]deltorphin-2 from CHOhDOP cell homogenates, mean ± SEM, n = 5
Procedure: as §2, §1

RP-170 = molecular target: T5, RP-170 (lactam 2-5); experiment: radioligand competition ([3H]deltorphin-2)
T5 chain: Y[dK]FFD-NH2

KW-496 = molecular target: T6, KW-496 (lactam 2-5); experiment: radioligand competition ([3H]deltorphin-2)
T6 chain: Y[dK]FFDGGGRYYRIK-NH2

KW-495 = molecular target: T7, KW-495 (lactam 2-5); experiment: radioligand competition ([3H]deltorphin-2)
T7 chain: Y[dK]FFDRYYRIK-NH2

Sequence of human NOP (P41146 whole entry): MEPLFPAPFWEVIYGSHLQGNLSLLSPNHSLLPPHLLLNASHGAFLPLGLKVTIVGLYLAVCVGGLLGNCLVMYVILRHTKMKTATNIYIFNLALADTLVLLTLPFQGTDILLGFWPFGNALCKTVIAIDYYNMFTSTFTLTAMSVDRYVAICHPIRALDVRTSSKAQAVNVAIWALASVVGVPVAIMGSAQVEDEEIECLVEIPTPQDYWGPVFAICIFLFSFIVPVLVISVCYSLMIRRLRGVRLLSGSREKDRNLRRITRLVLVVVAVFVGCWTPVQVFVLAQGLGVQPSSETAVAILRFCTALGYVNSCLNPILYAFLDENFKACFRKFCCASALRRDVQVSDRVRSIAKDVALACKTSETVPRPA
T1 sequence (P41145 whole entry): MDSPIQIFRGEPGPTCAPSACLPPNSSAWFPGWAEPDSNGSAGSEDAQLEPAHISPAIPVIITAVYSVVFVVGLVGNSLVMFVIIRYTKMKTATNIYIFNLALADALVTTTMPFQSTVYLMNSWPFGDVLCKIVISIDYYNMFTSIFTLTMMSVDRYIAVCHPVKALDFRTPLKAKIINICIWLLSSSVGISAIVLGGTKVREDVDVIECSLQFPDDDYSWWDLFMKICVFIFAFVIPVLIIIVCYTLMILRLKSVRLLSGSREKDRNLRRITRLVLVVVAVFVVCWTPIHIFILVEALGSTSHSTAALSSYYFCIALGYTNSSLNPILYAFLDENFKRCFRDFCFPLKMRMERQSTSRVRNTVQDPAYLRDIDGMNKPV
T2 sequence (P35372 whole entry): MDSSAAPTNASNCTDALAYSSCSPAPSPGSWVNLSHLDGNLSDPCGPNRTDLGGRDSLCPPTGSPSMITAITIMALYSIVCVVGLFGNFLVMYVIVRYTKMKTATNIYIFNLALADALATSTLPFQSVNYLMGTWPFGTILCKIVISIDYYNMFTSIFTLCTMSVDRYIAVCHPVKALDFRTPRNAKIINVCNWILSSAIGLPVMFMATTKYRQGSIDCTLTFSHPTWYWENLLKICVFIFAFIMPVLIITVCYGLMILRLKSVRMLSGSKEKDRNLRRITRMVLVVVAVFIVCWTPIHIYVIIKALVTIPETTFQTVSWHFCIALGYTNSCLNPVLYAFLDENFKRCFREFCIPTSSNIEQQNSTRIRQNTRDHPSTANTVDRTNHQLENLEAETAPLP
T4 sequence (P41146 whole entry): as the sequence (P41146 whole entry) above

With `CC[C@H](C)[C@H](NC(=O)[C@H](CCCNC(=N)N)NC(=O)[C@H](Cc1ccc(O)cc1)NC(=O)[C@H](Cc1ccc(O)cc1)NC(=O)[C@H](CCCNC(=N)N)NC(C)=O)C(=O)N[C@@H](CCCCN)C(N)=O` [Ac-RYYRIK-NH2, Ac-Arg-Tyr-Tyr-Arg-Ile-Lys-NH2] the “KOP pEC50 (CL95%)” value (human KOP) was “inactive”, the “KOP α ± SEM” value (human KOP) was “inactive” and the “MOP pEC50 (CL95%)” value (human MOP [1]) was “inactive”. The “DOP pEC50 (CL95%)” value (human DOP [2]) was “inactive” and the “DOP α ± SEM” value (human DOP [2]) was “inactive”.

For `CC1(C)SSC(C)(C)[C@@H](NC(=O)[C@@H](N)Cc2ccc(O)cc2)C(=O)NCC(=O)N[C@@H](Cc2ccccc2)C(=O)N[C@H]1C(=O)O` [DPDPE], the “KOP pEC50 (CL95%)” value (human KOP) was “inactive”, the “KOP α ± SEM” value (human KOP) was “inactive” and the “NOP pEC50 (CL95%)” value (human NOP) was “inactive”.

`CC[C@H](C)[C@H](NC(=O)[C@H](CCCNC(=N)N)NC(=O)[C@H](Cc1ccc(O)cc1)NC(=O)[C@H](Cc1ccc(O)cc1)NC(=O)[C@H](CCCNC(=N)N)NC(=O)[C@@H]1CC(=O)NCCCC[C@@H](NC(=O)[C@@H](N)Cc2ccc(O)cc2)C(=O)N[C@@H](Cc2ccccc2)C(=O)N[C@@H](Cc2ccccc2)C(=O)N1)C(=O)N[C@@H](CCCCN)C(N)=O` [KW-495, Tyr-c[D-Lys-Phe-Phe-Asp]-Arg-Tyr-Tyr-Arg-Ile-Lys-NH2] (HELM PEPTIDE1{Y.[dK].F.F.D.R.Y.Y.R.I.K.[am]}$PEPTIDE1,PEPTIDE1,2:R3-5:R3$$$V2.0; N-terminus assumed) was tested, and the Ki [3] was 2.24 nM, the EC50 (human KOP) was 2.82 nM and the “effect on motor coordination (falling latency)” value (mice [4]) was “did not cause any significant effect”. The EC50 (human MOP [5]) was 8.71 nM, the “ED50 (jumping response)” value (mice [6]) was 4.59 (1.17–18.09) nmol and the Ki (human MOP [7]) was 4.47 nM. For the same molecule, the Ki (human DOP [8]) was greater than 1000 nM, the “pKi DOP” value (human DOP [8]) was “did not bind to DOP” and the “DOP pEC50 (CL95%)” value (human DOP [2]) was “inactive”. For the same molecule, the “DOP α ± SEM” value (human DOP [2]) was “inactive” and the EC50 (human NOP) was 75.9 nM.

For `CC[C@H](C)[C@H](NC(=O)[C@H](CCCNC(=N)N)NC(=O)[C@H](Cc1ccc(O)cc1)NC(=O)[C@H](Cc1ccc(O)cc1)NC(=O)[C@H](CCCNC(=N)N)NC(=O)CNC(=O)CNC(=O)CNC(=O)[C@@H]1CC(=O)NCCCC[C@@H](NC(=O)[C@@H](N)Cc2ccc(O)cc2)C(=O)N[C@@H](Cc2ccccc2)C(=O)N[C@@H](Cc2ccccc2)C(=O)N1)C(=O)N[C@@H](CCCCN)C(N)=O` [KW-496] (HELM PEPTIDE1{Y.[dK].F.F.D.G.G.G.R.Y.Y.R.I.K.[am]}$PEPTIDE1,PEPTIDE1,2:R3-5:R3$$$V2.0), the Ki [3] was 44.7 nM, the EC50 (human KOP) was 1.15 nM and the “KOP α ± SEM” value (human KOP) was 1.03 ± 0.02. The EC50 (human MOP [5]) was 4.9 nM, the Ki (human MOP [7]) was 4.68 nM and the Ki (human DOP [8]) was greater than 1000 nM. For the same molecule, the “pKi DOP” value (human DOP [8]) was “did not bind to DOP”, the “DOP pEC50 (CL95%)” value (human DOP [2]) was “inactive” and the “DOP α ± SEM” value (human DOP [2]) was “inactive”. The “NOP pEC50 (CL95%)” value (human NOP) was “incomplete concentration–response curve; also recorded: Crc incomplete” and the “NOP α at 1 μM (Crc incomplete)” value (human NOP; effect at 1 μM relative to N/OFQ, concentration-response curve incomplete) was 0.33 ± 0.10.

In the case of `CC(C)C[C@H](NC(=O)[C@H](CCCCN)NC(=O)[C@H](CCCNC(=N)N)NC(=O)[C@H](C)NC(=O)[C@H](CO)NC(=O)[C@H](CCCCN)NC(=O)[C@H](CCCNC(=N)N)NC(=O)[C@H](C)NC(=O)CNC(=O)[C@@H](NC(=O)[C@H](Cc1ccccc1)NC(=O)CNC(=O)CNC(=O)[C@@H](N)Cc1ccccc1)[C@@H](C)O)C(=O)N[C@@H](C)C(=O)N[C@@H](CC(N)=O)C(=O)N[C@@H](CCC(N)=O)C(=O)O` [N/OFQ], the “MOP pEC50 (CL95%)” value (human MOP [1]) is reported as “inactive”.

`NC(=O)[C@@H]1CC(=O)NCCCC[C@@H](NC(=O)[C@@H](N)Cc2ccc(O)cc2)C(=O)N[C@@H](Cc2ccccc2)C(=O)N[C@@H](Cc2ccccc2)C(=O)N1` [RP-170, Tyr-c[D-Lys-Phe-Phe-Asp]-NH2, reference compound] (HELM PEPTIDE1{Y.[dK].F.F.D.[am]}$PEPTIDE1,PEPTIDE1,2:R3-5:R3$$$V2.0; N-terminus assumed) was tested, and the “KOP α ± SEM” value (human KOP) was 1.00 ± 0.03, the Ki (human MOP [7]) was 0.617 nM and the Ki (human DOP [8]) was 295 nM. The “DOP pEC50 (CL95%)” value (human DOP [2]) was “inactive”, the “DOP α ± SEM” value (human DOP [2]) was “inactive” and the “NOP pEC50 (CL95%)” value (human NOP) was “completely inactive”.

In the case of `CC[C@H](C)[C@H](NC(=O)[C@H](CCCNC(=N)N)NC(=O)[C@H](CCCNC(=N)N)NC(=O)[C@H](CC(C)C)NC(=O)[C@H](Cc1ccccc1)NC(=O)CNC(=O)CNC(=O)[C@@H](N)Cc1ccc(O)cc1)C(=O)N[C@@H](CCCNC(=N)N)C(=O)N1CCC[C@H]1C(=O)N[C@@H](CCCCN)C(=O)N[C@@H](CC(C)C)C(=O)N[C@@H](CCCCN)C(=O)N[C@@H](Cc1c[nH]c2ccccc12)C(=O)N[C@@H](CC(=O)O)C(=O)N[C@@H](CC(N)=O)C(=O)N[C@@H](CCC(N)=O)C(=O)O` [dynorphin A, reference compound], the “DOP α ± SEM” value (human DOP [2]) is reported as 1.00 and the “NOP pEC50 (CL95%)” value (human NOP) is reported as “inactive”.

B1: DOP (protein)
chain: MEPAPSAGAELQPPLFANASDAYPSACPSAGANASGPPGARSASSLALAIAITALYSAVCAVGLLGNVLVMFGIVRYTKMKTATNIYIFNLALADALATSTLPFQSAKYLMETWPFGELLCKAVLSIDYYNMFTSIFTLTMMSVDRYIAVCHPVKALDFRTPAKAKLINICIWVLASGVGVPIMVMAVTRPRDGAVVCMLQFPSPSWYWDTVTKICVFLFAFVVPILIITVCYGLMLLRLRSVRLLSGSKEKDRSLRRITRMVLVVVGAFVVCWAPIHIFVIVWTLVDIDRRDPLVVAALHLCIALGYANSSLNPVLYAFLDENFKRCFRQLCRKPCGRPDPSSFSRAREATARERVTACTPSDGPGGGAAA
In the case of B1, the Ki (RP-170) is reported as 295 nM, the Ki (KW-496) is reported as greater than 1000 nM and the Ki (KW-495) is reported as greater than 1000 nM.
